From ChEMBL document CHEMBL6178012, “Discovery of RP-1664: A First-in-Class Orally Bioavailable, Selective PLK4 Inhibitor” (J Med Chem, 2025)

Key:
in vitro [1] = conditions: mouse, liver microsomes
MCF7 = assay: cells; conditions: Homo sapiens
in vivo [2] = conditions: female, CD-1, mouse, po, 5 mg/kg
in vivo [3] = conditions: female, CD-1, mouse, iv, 1 mg/kg
in vitro [4] = conditions: human, cryopreserved hepatocytes
in vitro [5] = conditions: human, Caco-2
in vitro [6] = conditions: human, Caco-2; remark: listed apart in the source
in vitro [7] = conditions: dog, MDCK
[8] = target: T1, Serine/threonine-protein kinase PLK4 (Homo sapiens) (UniProt O00444); conditions: Mus musculus; SCID-Beige; CAL-148; dose lower 6.0 mg/kg, dose upper […], route po, time 4.0 day
T1 sequence (whole entry): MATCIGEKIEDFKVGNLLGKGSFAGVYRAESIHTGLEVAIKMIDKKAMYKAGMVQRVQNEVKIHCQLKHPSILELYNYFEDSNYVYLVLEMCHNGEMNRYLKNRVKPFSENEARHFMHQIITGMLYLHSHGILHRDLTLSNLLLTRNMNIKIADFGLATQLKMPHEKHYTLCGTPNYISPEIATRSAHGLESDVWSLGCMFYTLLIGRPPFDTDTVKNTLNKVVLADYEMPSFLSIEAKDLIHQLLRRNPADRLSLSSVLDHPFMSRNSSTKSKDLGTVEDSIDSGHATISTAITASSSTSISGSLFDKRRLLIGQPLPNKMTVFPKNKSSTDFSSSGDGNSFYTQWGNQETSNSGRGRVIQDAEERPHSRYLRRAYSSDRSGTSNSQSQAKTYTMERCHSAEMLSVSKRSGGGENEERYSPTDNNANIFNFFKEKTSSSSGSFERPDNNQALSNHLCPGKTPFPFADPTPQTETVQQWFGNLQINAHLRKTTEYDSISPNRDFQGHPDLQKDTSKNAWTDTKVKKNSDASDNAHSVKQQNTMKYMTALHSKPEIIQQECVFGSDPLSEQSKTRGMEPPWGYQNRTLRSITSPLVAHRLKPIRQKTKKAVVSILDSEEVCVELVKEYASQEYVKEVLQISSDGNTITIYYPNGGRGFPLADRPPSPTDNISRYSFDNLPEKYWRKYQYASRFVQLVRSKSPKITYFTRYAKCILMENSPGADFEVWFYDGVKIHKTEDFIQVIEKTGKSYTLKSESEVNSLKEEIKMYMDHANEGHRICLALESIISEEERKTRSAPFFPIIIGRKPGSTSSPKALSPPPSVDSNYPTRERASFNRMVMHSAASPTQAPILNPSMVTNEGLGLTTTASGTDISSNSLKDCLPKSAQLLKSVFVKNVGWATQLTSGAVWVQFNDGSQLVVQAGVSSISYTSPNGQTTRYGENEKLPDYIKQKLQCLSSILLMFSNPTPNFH

[9] = target: T1, Serine/threonine-protein kinase PLK4 (Homo sapiens); conditions: Mus musculus; SCID-Beige; CAL-148; dose lower 6.0 mg/kg, dose upper […], route po, time 7.0 day
in vivo [10] = conditions: male, Sprague-Dawley, rat, po
in vivo [11] = conditions: male, Beagle, dog, po, 1.15 mg/kg
in vivo [12] = conditions: male, Beagle, dog, iv, 0.5 mg/kg
in vivo [13] = conditions: cynomolgus monkey, po, 1.25 mg/kg
in vivo [14] = conditions: cynomolgus monkey, iv, 0.5 mg/kg
in vitro [15] = conditions: rat, liver microsomes
in vitro [16] = conditions: dog, liver microsomes
in vitro [17] = conditions: rhesus monkey, liver microsomes
in vitro [18] = conditions: human, liver microsomes
in vitro [19] = conditions: mouse, cryopreserved hepatocytes
in vitro [20] = conditions: rat, cryopreserved hepatocytes
in vitro [21] = conditions: dog, cryopreserved hepatocytes
in vitro [22] = conditions: rhesus monkey, cryopreserved hepatocytes

Compound `COc1c(Nc2cc(C)[nH]n2)nc(Sc2ccc(S(C)(=O)=O)cc2)nc1-c1cnn(C)c1` has a microsomal CLint at 1 µM (in vitro [1]) of under 7.7 µL/min/mg.
`Cc1cc(Nc2nc(N(C)c3c(F)cc(S(C)(=O)=O)cc3F)nc(-c3cnn(C)c3)c2C2CC2)n[nH]1` showed an EC50 (MCF7) of 0.065 µM, a bioavailability at 24 h (in vivo [2]) of over 100% and a clearance at 24 h (in vivo [3]) of 7 mL/min/kg. It also gave a hepatocyte CLint at 1 µM (in vitro [4]) of 5.3 µL/min/1e6 cells, a Papp at […], 10 µM (in vitro [5]) of 28 ×10⁻⁶ cm/s and an efflux ratio at […], 10 µM (in vitro [6]) of 1.1.
`Cc1cc(Nc2nc(N(C)c3c(F)cc(S(C)(=O)=O)cc3F)nc(-c3cn(C)c(C4CC4)n3)c2C2CC2)n[nH]1` gave an EC50 (MCF7) of 0.034 µM, a bioavailability at 24 h (in vivo [2]) of over 100% and a clearance at 24 h (in vivo [3]) of 9 mL/min/kg. It also gave a hepatocyte CLint at 1 µM (in vitro [4]) of 7.5 µL/min/1e6 cells, a Papp at […], 10 µM (in vitro [5]) of 28 ×10⁻⁶ cm/s and an efflux ratio at […], 10 µM (in vitro [6]) of 2.5.
Compound `Cc1cc(Nc2nc(Nc3ccc(S(C)(=O)=O)cc3F)nc(-c3cnn(C)c3)c2C2CC2)n[nH]1` has an EC50 (MCF7) of 1.3 µM.
Compound `COc1c(Nc2cc(C)[nH]n2)nc(Sc2ccc(S(C)(=O)=O)cc2F)nc1N1CCCCC1` has a microsomal CLint at 1 µM (in vitro [1]) of 47 µL/min/mg and a Papp A→B at 2 h, 1 µM (in vitro [7]) of 8.1 ×10⁻⁶ cm/s.
`Cc1cc(Nc2nc(N(C)c3ccc(S(C)(=O)=O)cc3Cl)nc(-c3cnn(C)c3)c2C2CC2)n[nH]1` gave an EC50 (MCF7) of 0.18 µM.
`Cc1cc(Nc2nc(N(C)c3c(F)cc(S(C)(=O)=O)cc3F)nc(-c3cn(C)nc3C)c2C2CC2)n[nH]1` showed an EC50 (MCF7) of 0.083 µM, a bioavailability at 24 h (in vivo [2]) of over 100% and a clearance at 24 h (in vivo [3]) of 10 mL/min/kg. For the same compound, the hepatocyte CLint at 1 µM (in vitro [4]) was 50.1 µL/min/1e6 cells.
With `COc1c(Nc2cc(C)[nH]n2)nc(Sc2ccc(S(C)(=O)=O)cc2F)nc1N1CCOCC1` the microsomal CLint at 1 µM (in vitro [1]) was 31 µL/min/mg and the Papp A→B at 2 h, 1 µM (in vitro [7]) was 14 ×10⁻⁶ cm/s.
In the case of `Cc1cc(Nc2nc(N(C)c3c(F)cc(S(C)(=O)=O)cc3F)nc(-c3cn4c(n3)COCC4)c2C2CC2)n[nH]1`, the EC50 (MCF7) is reported as 0.035 µM, the bioavailability at 24 h (in vivo [2]) is reported as 40% and the clearance at 24 h (in vivo [3]) is reported as 3 mL/min/kg. It also gave a hepatocyte CLint at 1 µM (in vitro [4]) of under 3.8 µL/min/1e6 cells, a Papp at […], 10 µM (in vitro [5]) of 12 ×10⁻⁶ cm/s and an efflux ratio at […], 10 µM (in vitro [6]) of 4.4.
`CN(c1nc(Nc2cc(C3CC3)[nH]n2)c(C2CC2)c(-c2cnn(C)c2)n1)c1c(F)cc(S(C)(=O)=O)cc1F` showed an EC50 (MCF7) of 0.057 µM and a hepatocyte CLint at 1 µM (in vitro [4]) of 12 µL/min/1e6 cells.
For `Cc1cc(Nc2nc(N(C)c3c(F)cc(S(C)(=O)=O)cc3F)nc(-c3cc(C(C)(C)O)n(C)n3)c2C2CC2)n[nH]1`, the EC50 (MCF7) was 0.023 µM, the bioavailability at 24 h (in vivo [2]) was 55% and the clearance at 24 h (in vivo [3]) was 12 mL/min/kg. For the same compound, the hepatocyte CLint at 1 µM (in vitro [4]) was 6 µL/min/1e6 cells, the Papp at […], 10 µM (in vitro [5]) was 7.8 ×10⁻⁶ cm/s and the efflux ratio at […], 10 µM (in vitro [6]) was 6.9.
`Cc1cc(Nc2nc(N(C)c3c(F)cc(S(N)(=O)=O)cc3F)nc(-c3cnn(C)c3)c2C2CC2)n[nH]1` gave a hepatocyte CLint at 1 µM (in vitro [4]) of 19.4 µL/min/1e6 cells.
Compound `CN(c1nc(Nc2cc(C(F)F)[nH]n2)c(C2CC2)c(-c2cnn(C)c2)n1)c1c(F)cc(S(C)(=O)=O)cc1F` has an EC50 (MCF7) of 0.86 µM.
In the case of `Cc1cc(Nc2nc(Sc3ccc(S(C)(=O)=O)cc3F)nc(-c3cnn(C)c3)c2C2CC2)n[nH]1`, the EC50 (MCF7) is reported as 1.7 µM.
In the case of `Cc1cc(Nc2nc(N(C)c3ccc(S(=O)(=O)C4CC4)cc3F)nc(-c3cnn(C)c3)c2C2CC2)n[nH]1`, the EC50 (MCF7) is reported as 0.21 µM and the hepatocyte CLint at 1 µM (in vitro [4]) is reported as 8.2 µL/min/1e6 cells.
In the case of `COc1c(Nc2cc(C)[nH]n2)nc(Sc2ccc(S(C)(=O)=O)cc2F)nc1-c1cnn(C)c1`, the EC50 (MCF7) is reported as 0.89 µM and the microsomal CLint at 1 µM (in vitro [1]) is reported as under 7.7 µL/min/mg.
For `Cc1cc(Nc2nc(N(C)c3c(F)cc(S(C)(=O)=O)c(F)c3F)nc(-c3cnn(C)c3)c2C2CC2)n[nH]1`, the EC50 (MCF7) was 0.067 µM.
Work on `Cc1cc(Nc2nc(N(C)c3cc(F)c(S(C)(=O)=O)cc3F)nc(-c3cnn(C)c3)c2C2CC2)n[nH]1` yielded an EC50 (MCF7) of 0.16 µM and a hepatocyte CLint at 1 µM (in vitro [4]) of 42 µL/min/1e6 cells.
In the case of `Cc1cc(Nc2nc(N(C)c3c(F)cc(S(C)(=O)=O)cc3F)nc(N3CCOCC3)c2C2CC2)n[nH]1`, the EC50 (MCF7) is reported as 0.15 µM and the hepatocyte CLint at 1 µM (in vitro [4]) is reported as 50.9 µL/min/1e6 cells.
`Cc1cc(Nc2nc(N(C)c3c(F)cc(S(C)(=O)=O)cc3F)nc(-c3cnn(C)c3CO)c2C2CC2)n[nH]1` showed an EC50 (MCF7) of 0.14 µM, a bioavailability at 24 h (in vivo [2]) of 23% and a clearance at 24 h (in vivo [3]) of 15 mL/min/kg. For the same compound, the hepatocyte CLint at 1 µM (in vitro [4]) was 6 µL/min/1e6 cells.
Work on `C#Cc1cc(Nc2nc(N(C)c3c(F)cc(S(C)(=O)=O)cc3F)nc(-c3cnn(C)c3)c2C2CC2)n[nH]1` yielded an EC50 (MCF7) of 0.23 µM and a hepatocyte CLint at 1 µM (in vitro [4]) of 20.4 µL/min/1e6 cells.
With `Cc1cc(Nc2nc(N(C)c3c(F)cc(S(C)(=O)=O)cc3F)nc(-c3cn(C)cn3)c2C2CC2)n[nH]1` the inhibition [8] was “Dose-dependent-effect”, the inhibition [9] was “Dose-dependent-effect” and the EC50 (MCF7) was 0.051 µM. The bioavailability at 24 h (in vivo [2]) was at least 100%, the clearance at 24 h (in vivo [3]) was 11 mL/min/kg and the bioavailability at 24 h (in vivo [10]) was 28%. For the same compound, the bioavailability at 24 h (in vivo [11]) was 98%, the clearance at 24 h (in vivo [12]) was 30 mL/min/kg and the bioavailability at 24 h (in vivo [13]) was 96%. It also gave a clearance at 24 h (in vivo [14]) of 14 mL/min/kg, a microsomal CLint at 1 µM (in vitro [1]) of under 7.7 µL/min/mg and a hepatocyte CLint at 1 µM (in vitro [4]) of under 3.8 µL/min/1e6 cells. For the same compound, the Papp at […], 10 µM (in vitro [5]) was 4.6 ×10⁻⁶ cm/s, the efflux ratio at […], 10 µM (in vitro [6]) was 8.1 and the microsomal CLint at 1 µM (in vitro [15]) was under 7.7 µL/min/mg. The microsomal CLint at 1 µM (in vitro [16]) was under 7.7 µL/min/mg, the microsomal CLint at 1 µM (in vitro [17]) was under 7.7 µL/min/mg and the microsomal CLint at 1 µM (in vitro [18]) was under 7.7 µL/min/mg. The hepatocyte CLint at 1 µM (in vitro [19]) was under 3.8 µL/min/1e6 cells, the hepatocyte CLint at 1 µM (in vitro [20]) was under 3.8 µL/min/1e6 cells and the hepatocyte CLint at 1 µM (in vitro [21]) was under 3.8 µL/min/1e6 cells. The hepatocyte CLint at 1 µM (in vitro [22]) was under 3.8 µL/min/1e6 cells.
In the case of `COc1c(Nc2cc(C)[nH]n2)nc(Sc2ccc(S(=O)(=O)Cc3cccc([N+](=O)[O-])c3F)cc2F)nc1N1CCCCC1`, the microsomal CLint at 1 µM (in vitro [1]) is reported as over 416 µL/min/mg and the Papp A→B at 2 h, 1 µM (in vitro [7]) is reported as 0.1 ×10⁻⁶ cm/s.
Compound `Cc1cc(Nc2nc(Oc3ccc(S(C)(=O)=O)cc3F)nc(-c3cnn(C)c3)c2C2CC2)n[nH]1` has an EC50 (MCF7) of 2.5 µM.
For `Cc1cc(Nc2nc(N(C)c3c(F)cc(S(C)(=O)=O)cc3F)nc(-c3cn(C)nc3CO)c2C2CC2)n[nH]1`, the hepatocyte CLint at 1 µM (in vitro [4]) was 12.8 µL/min/1e6 cells.
`Cc1cc(Nc2nc(N(C)c3ccc(S(C)(=O)=O)cc3F)nc(-c3cnn(C)c3)c2C2CC2)n[nH]1` gave an EC50 (MCF7) of 0.43 µM.
In the case of `Cc1cc(Nc2nc(N(C)c3c(F)cc(S(C)(=O)=O)cc3F)nc(-c3ccnnc3)c2C2CC2)n[nH]1`, the EC50 (MCF7) is reported as 0.092 µM and the hepatocyte CLint at 1 µM (in vitro [4]) is reported as 51.5 µL/min/1e6 cells.
